Assay results published in patent publication US5763245A, “Method of controlling insects” (priority 1996, dated 1998).

Legend:
boll weevil larvae [1] = assay: Boll weevil larvae bioassay (diet incorporation); type: in vivo; settings: for lethal effects against boll weevil: incorporated at up to 200 &M in the standard diet
Procedure: Assays for activity against boll weevil larvae are carried out by incorporating the test sample into a agar liquid diet similar to that for southern corn rootworm [Marrone et al., 1985]. The test sample is substituted for the 20% water component. Neonate larvae are allowed to feed on the diet and mortality and growth stunting are evaluated.
Protein concentrations were determined spectrophotometrically with BCA protein reagent [Smith et al., 1985].

[2] = tested on: fall armyworn (FAW) neonate larvae; assay: B.t. / cholesterol oxidase synergy diet assay; type: in vivo; settings: 7-day; each protein 15 ppm, alone or in tandem
Procedure: (§1) Feeding assays were conducted for 7-10 days.

[3] = tested on: black cutworm (BCW) larvae; assay: B.t. / cholesterol oxidase synergy diet assay; type: in vivo, Agrotis ipsilon; settings: each protein 15 ppm, alone or in tandem
H. zea neonate larvae = assay: B.t. / cholesterol oxidase synergy diet assay; type: in vivo, Helicoverpa zea; design: surv.: unit not given here; settings: CO 15 ppm, alone or in tandem; for Mean Larval wgt / Stunting Observed: 7-day
Procedure: as §1

[4] = tested on: black cutworm (BCW) neonate; assay: Detached leaf assay with transgenic corn; type: in vivo, Agrotis ipsilon; settings: corn leaf tissue, 3d
Source text: A detached leaf assay was designed to evaluate biological activity of transgenic corn expressing either CryIA(b) alone or in combination with cholesterol oxidase (CO) against Agrotis ipsilon, black cutworm (BCW). In artificial diet assays, a synergistic response was observed when CO and CryIA(b) were combined.
Treatments included transgenic corn expressing either CryIA(b) alone or in combination with CO. Plant tissue from the F1 generation of two CO events crossed to a CryIA(b) event was used in this bioassay. The CO events included collosian and flushed. The CryIA(b) event was ezra. For each of the CO events by CryIA(b) cross, the CO isopopulations provide the tissue for each treatment.
CO expression was estimated to be 15 and 14 ppm for collosian and flushed, respectively. CryIA(b) expression was not quantitated. Historically, this event has reliably and consistently expressed the CryIA(b) protein at around 10 ppm.
Tissue was collected at the v6 stage from the youngest leaf of six plants for each treatment event combination. Four leaf samples (1.5×2.0 cm leaf pieces) were taken from each plant, where each piece was placed singly in a well of a 24-well microtiter plate. One neonate larva was added to each well and sealed with a mylar lidding. The assay was incubated for 3 days at 27° C. Larval weight (mg) and mortality was recorded. […] Although larval weight was less in the CryIA(b)+CO treatment for both events as compared to CryIA(b) alone (ca. 12%), the difference between the treatment means within an event was not significant.

[5] = tested on: Tobacco budworm (TBW) neonate larvae; assay: B.t. / cholesterol oxidase synergy diet assay; type: in vivo; settings: 7-day; for surv.: n 96
Procedure: as §1

[6] = tested on: beet armyworm (BAW) neonate larvae; assay: B.t. / cholesterol oxidase synergy diet assay; type: in vivo; settings: each protein 15 ppm, alone or in tandem; for Mean Larval wgt / Stunting Observed: 7-day
Procedure: as §1

tobacco budworm larvae = assay: Cottonseed diet (Pharmamedia flour) test with tobacco budworm; type: in vivo; settings: 100 ppm in cottonseed diet (Pharmamedia flour)
Procedure: The Southern corn rootworm diet used in the assay described above was the control. Two treatment diets were made by mixing 30 g of one of two types of cottonseed flour into 170 mL of a 1.6% agar solution at 50% C, containing 0.13% propionic acid, 0.014% phosphoric acid, and 30 mg each of streptomycin sulfate and chlortetracycline. Before mixing, 10% KOH was used to adjust the pH to 6.2. One test diet utilized raw cottonseed flour (Sigma) as the nutrient source; the other utilized Pharmamedia™ (Traders Protein), a flour made up of cottonseed embryos. The diets were incubated in a water bath at 40% C. Dilutions of the Sigma Streptomyces 3-hydroxysteroid oxidase (cholesterol oxidase) were incorporated into the diets as described above. Boll weevil larvae were allowed to feed and mortality rates were determined after six days.
In addition, tobacco budworm larvae are 68% stunted when exposed to 3-hydroxysteroid oxidase (100 ppm) in cottonseed diet (made with Pharmamedia™ flour).

boll weevil larvae [7] = assay: Homogenized cotton leaf tissue assay; type: in vivo; settings: six days, initial 24
Procedure: In order to test 3-hydroxysteroid oxidase against boll weevil larvae in a host tissue diet environment, a study was conducted in which cotton leaf tissue was the only nutritional component of an agar-based diet. Two cotton leaves (each approx. 5 inches wide ) with stems were homogenized at 50% C into 170 mL of a 1.6% agar solution containing 0.13% propionic acid, 0.014% phosphoric acid, and 30 mg each of streptomycin sulfate and chlortetracycline. Before addition of the leaves, 10% KOH was used to adjust the pH of the agar solution to 6.2. The leaf "diet" was allowed to cool to 40% C. Dilutions of cholesterol oxidase and a water control were incorporated into the leaf "diet", poured into insect diet trays and allowed to cool. Boll weevil eggs were added to the diet wells. The assay was evaluated six days later. […] This illustrates that the enzyme is insecticidal in the presence of intact cotton tissue and cells.

[8] = tested on: boll weevil or lepidopteran larvae; assay: Feeding of diet incubated with enzyme and then boiled; type: in vivo; settings: diet incubated one week with the enzyme, then boiled
Source text: While not being bound by this theory, it is believed that the 3-hydroxysteroid oxidase enzyme kills or stunts boll weevil larvae and stunts the growth of lepidopteran larvae by some action in the gut after ingestion.

[9] = tested on: midguts of boll weevil larvae; assay: Midgut morphology of larvae feeding on enzyme diets; type: in vivo
Source text: The enzymatic action in the gut is believed to be oxidation of the 3-hydroxysteroid(s) of the cell membranes in the lining of the gut. The effects of ingested 3-hydroxysteroid oxidase on the midguts of boll weevil larvae have been studied. The midguts of boll weevil larvae (neonate and second instar at initiation of assay) feeding on diets containing sublethal doses of 3-hydroxysteroid oxidase were dissected out. Representative midguts were immediately placed in fixative and analyzed microscopically for morphological changes. […] There was a good correlation of the morphological changes with the observed mortality over the 3-hydroxysteroid oxidase concentration range in the diet. Parallel midguts were dissected and homogenized and found to contain active 3-hydroxysteroid oxidase in enzymatic assays.

[10] = CO 15 ppm, CryIA(c) 0.1 ppm, alone or in tandem
[11] = CryIA(c) 0.05 ppm, alone or with CO 15 ppm

**Q.** For `CC(C)CCC[C@@H](C)[C@H]1CC[C@H]2[C@@H]3CCC4=CC(=O)CC[C@]4(C)[C@H]3CC[C@]12C` [cholestenone, reference compound], which “lethal effects against boll weevil” value (boll weevil larvae [1]) is on record?
**A.** Nor do cholestenone or hydrogen peroxide, the products of enzymatic action on cholesterol, exhibit any lethal effects

**Q.** How did the “lethal effects against boll weevil” value (boll weevil larvae [1]) turn out when `OO` [hydrogen peroxide, reference compound] was run?
**A.** Nor do cholestenone or hydrogen peroxide, the products of enzymatic action on cholesterol, exhibit any lethal effects

**Q.** How did the “Mean Larval wgt” value [2] turn out when “CryIA(b): Bacillus thuringiensis crystal protein, purified; in Table 24 expressed in transgenic corn event ezra” was run?
**A.** 0.25 ± 0.05 mg

**Q.** And the “Obs. Mort.” value [2]?
**A.** 10%

**Q.** And the “Stunting Observed” value [2]?
**A.** 99%

**Q.** And the surv. [2]?
**A.** 80

**Q.** And the “Obs. Mort.” value ([3]; 3rd instar 6 day)?
**A.** 0%

**Q.** And the surv. ([3]; 3rd instar 6 day)?
**A.** 32

**Q.** And the “Mean Larval wgt” value ([3]; 3rd instar, 6-day assay)?
**A.** 216 mg

**Q.** What about the “Stunting Observed” value ([3]; 3rd instar, 6-day assay) of the same compound?
**A.** 15%

**Q.** And the “Obs. Mort.” value ([3]; Neonate 6 day)?
**A.** 0%

**Q.** What about the surv. ([3]; Neonate 6 day) of the same compound?
**A.** 91

**Q.** And the “Obs. Mort.” value ([3]; Neonate 7 day)?
**A.** 2%

**Q.** And the surv. ([3]; Neonate 7 day)?
**A.** 76

**Q.** And the “Mean Larval wgt” value ([3]; Neonate, 7-day assay)?
**A.** 13.64 mg

**Q.** And the “Stunting Observed” value ([3]; Neonate, 7-day assay)?
**A.** 7%

**Q.** What about the “Mean Larval wgt” value (H. zea neonate larvae; CryIA(b) 10 ppm) of the same compound?
**A.** 0.96 mg

**Q.** What about the “Stunting Observed” value (H. zea neonate larvae; CryIA(b) 10 ppm) of the same compound?
**A.** 97%

**Q.** What about the “Obs. Mort.” value (H. zea neonate larvae; 7 day, CryIA(b) 10 ppm) of the same compound?
**A.** 4.3%

**Q.** And the surv. (H. zea neonate larvae; 7 day, CryIA(b) 10 ppm)?
**A.** 90

**Q.** And the “Obs. Mort.” value (H. zea neonate larvae; 8 day, CryIA(b) 10 ppm)?
**A.** 10%

**Q.** And the surv. (H. zea neonate larvae; 8 day, CryIA(b) 10 ppm)?
**A.** 69

**Q.** And the “Mean Larval Weight” value ([4]; event collosian x ezra)?
**A.** 1.11 mg

**Q.** What about the Mort. ([4]; event collosian x ezra) of the same compound?
**A.** 7%

**Q.** And the “Mean Larval Weight” value ([4]; event flushed x ezra)?
**A.** 1.27 mg

**Q.** And the Mort. ([4]; event flushed x ezra)?
**A.** 8%

**Q.** Which results are given for “CryIA(c): Bacillus thuringiensis crystal protein, purified”?
**A.** Obs. Mort. [5, 10]: 38%; surv. [5, 10]: 56; Obs. Mort. [5, 11]: 23%; surv. [5, 11]: 70; Mean Larval wgt [6]: 6.15 ± 0.90 mg; Stunting Observed [6]: 88%; Obs. Mort. ([6]; 7 day): 2%; surv. ([6]; 7 day): 94; Obs. Mort. ([6]; 8 day): 3%; surv. ([6]; 8 day): 70; Obs. Mort. (H. zea neonate larvae; 7 day, CryIA(c) 15 ppm): 11%; surv. (H. zea neonate larvae; 7 day, CryIA(c) 15 ppm): 82; Obs. Mort. (H. zea neonate larvae; 10 day, CryIA(c) 15 ppm): 11%; surv. (H. zea neonate larvae; 10 day, CryIA(c) 15 ppm): 82

**Q.** Which “effect of added catalase on lethal effects of 3-hydroxysteroid oxidase on boll weevil” value (boll weevil larvae [1]; catalase added to 3-hydroxysteroid oxidase in the bioassay) does the source give for catalase [reference compound] here?
**A.** does not block the lethal effects

**Q.** What does the source list for cholesterol oxidase?
**A.** stunted (tobacco budworm larvae): 68%; Bollweevils Survivors (boll weevil larvae [7]; 10 ppm in cotton leaf diet): 20; Bollweevils Survivors (boll weevil larvae [7]; 50 ppm in cotton leaf diet): 12; Bollweevils Survivors (boll weevil larvae [7]; 100 ppm in cotton leaf diet): 0; lethal or stunting effects [8]: no lethal or stunting effects; midgut morphological changes ([9]; higher doses): complete lysis of the cells; midgut morphological changes ([9]; larvae ingesting low doses): Disruption of the epithelial cell layer; Obs. Mort. [5, 10]: 1%; surv. [5, 10]: 90; Mean Larval wgt [6]: 27.51 ± 5.52 mg; Stunting Observed [6]: 47%; Obs. Mort. ([6]; 7 day): 1%; surv. ([6]; 7 day): 94; Obs. Mort. ([6]; 8 day): 3%; surv. ([6]; 8 day): 77; Mean Larval wgt [2]: 42.97 ± 1.77 mg; Obs. Mort. [2]: 2%; Stunting Observed [2]: 0%; surv. [2]: 90; Obs. Mort. ([3]; 3rd instar 6 day): 0%; surv. ([3]; 3rd instar 6 day): 32; Mean Larval wgt ([3]; 3rd instar, 6-day assay): 197 mg; Stunting Observed ([3]; 3rd instar, 6-day assay): 22%; Obs. Mort. ([3]; Neonate 6 day): 2%; surv. ([3]; Neonate 6 day): 81; Obs. Mort. ([3]; Neonate 7 day): 1%; surv. ([3]; Neonate 7 day): 61; Mean Larval wgt ([3]; Neonate, 7-day assay): 9.93 mg; Stunting Observed ([3]; Neonate, 7-day assay): 32%; Mean Larval wgt (H. zea neonate larvae; CryIA(b) 10 ppm): 24.95 mg; Stunting Observed (H. zea neonate larvae; CryIA(b) 10 ppm): 27%; Obs. Mort. (H. zea neonate larvae; 7 day, CryIA(b) 10 ppm): 0%; surv. (H. zea neonate larvae; 7 day, CryIA(b) 10 ppm): 95; Obs. Mort. (H. zea neonate larvae; 7 day, CryIA(c) 15 ppm): 0%; surv. (H. zea neonate larvae; 7 day, CryIA(c) 15 ppm): 96; Obs. Mort. (H. zea neonate larvae; 8 day, CryIA(b) 10 ppm): 1%; surv. (H. zea neonate larvae; 8 day, CryIA(b) 10 ppm): 87; Obs. Mort. (H. zea neonate larvae; 10 day, CryIA(c) 15 ppm): 0%; surv. (H. zea neonate larvae; 10 day, CryIA(c) 15 ppm): 96
